In publication PMC2736375, “Solution Behavior and Activity of a Halophilic Esterase under High Salt Concentration” (PLoS ONE, 2009):

Biological target: T1, LipC (Haloarcula marismortui, UniProt Q5V5N6)
T1 construct: full-length, N- and C-terminal 6xHis tags, pET28a (NheI/HindIII), E. coli BL21(DE3); theoretical 34 kDa, ~50 kDa on SDS-PAGE; no signal peptide; catalytic triad Ser128, Asp224, His254; active as free monomers, mixed aggregates
T1 sequence (Q5V5N6 1-327): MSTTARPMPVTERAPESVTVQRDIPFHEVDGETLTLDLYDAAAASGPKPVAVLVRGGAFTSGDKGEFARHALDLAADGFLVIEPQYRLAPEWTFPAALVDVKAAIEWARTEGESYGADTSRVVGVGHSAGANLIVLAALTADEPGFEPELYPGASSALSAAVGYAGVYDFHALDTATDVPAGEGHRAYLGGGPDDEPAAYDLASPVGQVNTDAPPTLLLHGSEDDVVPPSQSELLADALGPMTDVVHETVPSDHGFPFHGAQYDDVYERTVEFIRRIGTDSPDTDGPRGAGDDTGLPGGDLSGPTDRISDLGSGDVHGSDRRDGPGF
Assay: p-nitrophenol release at […] nm
Assay type: biochemical
Conditions: 0.5 mM substrate, 50 mM Tris-HCl pH 8.5, 45 °C, 3.4 M NaCl

| Compound | p-nitrophenol release at 405 nm |
| --- | --- |
| CCC(=O)Oc1ccc([N+](=O)[O-])cc1 [p-NP-C3] | short chain p-nitrophenyl esters of p-NP-C2 and p-NP-C3 |
| CC(=O)Oc1ccc([N+](=O)[O-])cc1 [p-NP-C2, p-nitrophenyl acetate] | The highest specific activity of LipC was found towards the short chain p-nitrophenyl esters |
